Reference: ChEMBL document CHEMBL5463729, “Data for DCP probe BAY 1753011” (2023)

Assays:
[1] = target: Dual specificity tyrosine-phosphorylation-regulated kinase 2 (Homo sapiens) (UniProt Q92630); experiment: Inhibition of DYRK2(h) at 10.0 µM in the Eurofins Kinase panel; conditions: Compound concentration 10.0 uM
[2] = target: T1, Alpha-2C adrenergic receptor (Homo sapiens) (UniProt P18825); conditions: Compound concentration 10.0 uM
T1 sequence (whole entry): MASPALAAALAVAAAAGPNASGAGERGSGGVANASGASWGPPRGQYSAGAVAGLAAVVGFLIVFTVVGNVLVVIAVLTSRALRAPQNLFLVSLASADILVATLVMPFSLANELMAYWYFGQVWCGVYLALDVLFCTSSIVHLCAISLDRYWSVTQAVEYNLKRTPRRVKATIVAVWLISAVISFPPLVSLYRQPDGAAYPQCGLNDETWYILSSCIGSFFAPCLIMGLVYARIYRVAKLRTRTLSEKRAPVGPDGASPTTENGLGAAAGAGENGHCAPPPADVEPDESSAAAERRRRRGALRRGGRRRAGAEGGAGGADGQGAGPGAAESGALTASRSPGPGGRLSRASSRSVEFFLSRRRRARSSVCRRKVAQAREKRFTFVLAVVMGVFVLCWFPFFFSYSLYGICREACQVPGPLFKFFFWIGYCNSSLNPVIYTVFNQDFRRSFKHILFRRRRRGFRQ

[3] = target: Testis-specific serine/threonine-protein kinase 1 (Homo sapiens) (UniProt Q9BXA7); experiment: Inhibition of TSSK1(h) at 10.0 µM in the Eurofins Kinase panel; conditions: Compound concentration 10.0 uM
[4] = target: Mitogen-activated protein kinase kinase kinase 2 (Homo sapiens) (UniProt Q9Y2U5); experiment: Inhibition of MEKK2(h) at 10.0 µM in the Eurofins Kinase panel; conditions: Compound concentration 10.0 uM
[5] = target: Dual specificity mitogen-activated protein kinase kinase 3 (Homo sapiens) (UniProt P46734); experiment: Inhibition of MKK3(h) at 10.0 µM in the Eurofins Kinase panel; conditions: Compound concentration 10.0 uM
[6] = target: MAP kinase-activated protein kinase 5 (Homo sapiens) (UniProt Q8IW41); experiment: Inhibition of PRAK(h) at 10.0 µM in the Eurofins Kinase panel; conditions: Compound concentration 10.0 uM
[7] = target: Ephrin type-A receptor 5 (Homo sapiens) (UniProt P54756); experiment: Inhibition of EphA5(h) at 10.0 µM in the Eurofins Kinase panel; conditions: Compound concentration 10.0 uM
[8] = target: Mitogen-activated protein kinase 13 (Homo sapiens) (UniProt O15264); experiment: Inhibition of SAPK4(h) at 10.0 µM in the Eurofins Kinase panel; conditions: Compound concentration 10.0 uM
Sequence of Mitogen-activated protein kinase 13 (Homo sapiens) (O15264 whole entry): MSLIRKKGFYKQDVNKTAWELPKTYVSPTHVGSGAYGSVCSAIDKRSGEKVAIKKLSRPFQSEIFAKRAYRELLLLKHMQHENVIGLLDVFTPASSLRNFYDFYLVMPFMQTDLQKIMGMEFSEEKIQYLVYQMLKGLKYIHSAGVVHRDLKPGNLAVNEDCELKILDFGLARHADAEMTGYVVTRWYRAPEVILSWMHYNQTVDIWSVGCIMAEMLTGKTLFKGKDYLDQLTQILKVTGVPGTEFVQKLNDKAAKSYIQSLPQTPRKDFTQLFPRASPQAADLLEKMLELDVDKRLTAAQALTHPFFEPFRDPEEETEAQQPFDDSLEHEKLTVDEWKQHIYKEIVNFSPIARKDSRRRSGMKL

[9] = target: Tyrosine-protein kinase ABL2 (Homo sapiens) (UniProt P42684); experiment: Inhibition of Arg(h) at 10.0 µM in the Eurofins Kinase panel; conditions: Compound concentration 10.0 uM
Sequence of Tyrosine-protein kinase ABL2 (Homo sapiens) (P42684 whole entry): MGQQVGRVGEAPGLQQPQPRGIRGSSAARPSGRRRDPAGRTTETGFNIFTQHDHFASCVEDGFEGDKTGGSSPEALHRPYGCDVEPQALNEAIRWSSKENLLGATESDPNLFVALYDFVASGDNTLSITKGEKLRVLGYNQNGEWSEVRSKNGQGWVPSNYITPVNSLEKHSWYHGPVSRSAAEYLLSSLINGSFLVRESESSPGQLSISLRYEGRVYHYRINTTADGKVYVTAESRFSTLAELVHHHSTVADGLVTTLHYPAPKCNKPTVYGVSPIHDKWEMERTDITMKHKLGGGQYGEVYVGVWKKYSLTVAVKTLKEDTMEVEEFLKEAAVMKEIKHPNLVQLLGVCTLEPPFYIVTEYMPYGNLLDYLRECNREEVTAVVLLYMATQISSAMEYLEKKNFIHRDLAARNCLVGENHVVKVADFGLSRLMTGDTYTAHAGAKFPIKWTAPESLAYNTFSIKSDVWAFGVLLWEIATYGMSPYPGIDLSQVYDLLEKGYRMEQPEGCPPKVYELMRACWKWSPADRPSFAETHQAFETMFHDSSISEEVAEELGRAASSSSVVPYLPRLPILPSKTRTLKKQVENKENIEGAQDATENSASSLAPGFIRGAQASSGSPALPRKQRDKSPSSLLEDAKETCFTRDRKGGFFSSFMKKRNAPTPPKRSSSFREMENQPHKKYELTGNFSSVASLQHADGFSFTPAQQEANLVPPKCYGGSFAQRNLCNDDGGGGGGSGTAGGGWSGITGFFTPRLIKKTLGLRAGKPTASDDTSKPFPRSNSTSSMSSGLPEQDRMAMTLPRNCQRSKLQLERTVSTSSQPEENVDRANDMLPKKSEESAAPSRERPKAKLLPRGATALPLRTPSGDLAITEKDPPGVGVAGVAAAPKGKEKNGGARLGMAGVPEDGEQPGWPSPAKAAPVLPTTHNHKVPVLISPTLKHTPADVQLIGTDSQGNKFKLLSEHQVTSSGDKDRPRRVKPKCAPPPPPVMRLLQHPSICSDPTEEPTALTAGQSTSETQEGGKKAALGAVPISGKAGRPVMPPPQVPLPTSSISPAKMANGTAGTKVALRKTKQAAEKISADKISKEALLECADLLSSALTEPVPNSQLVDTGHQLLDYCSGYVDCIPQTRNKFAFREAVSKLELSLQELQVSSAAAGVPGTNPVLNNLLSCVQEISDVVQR

[10] = target: Glutamate receptor 2 (Homo sapiens) (UniProt P42262); conditions: Rattus norvegicus; Compound concentration 10.0 uM
[11] = target: CDK4/Cyclin D3 (Homo sapiens) (UniProt P11802+P30281); experiment: Inhibition of CDK4/cyclinD3(h) at 10.0 µM in the Eurofins Kinase panel; assay type: protein-complex assay; conditions: Compound concentration 10.0 uM
[12] = target: Serine/threonine-protein kinase 24 (Homo sapiens) (UniProt Q9Y6E0); experiment: Inhibition of MST3(h) at 10.0 µM in the Eurofins Kinase panel; conditions: Compound concentration 10.0 uM
Sequence of Serine/threonine-protein kinase 24 (Homo sapiens) (Q9Y6E0 whole entry, looked up): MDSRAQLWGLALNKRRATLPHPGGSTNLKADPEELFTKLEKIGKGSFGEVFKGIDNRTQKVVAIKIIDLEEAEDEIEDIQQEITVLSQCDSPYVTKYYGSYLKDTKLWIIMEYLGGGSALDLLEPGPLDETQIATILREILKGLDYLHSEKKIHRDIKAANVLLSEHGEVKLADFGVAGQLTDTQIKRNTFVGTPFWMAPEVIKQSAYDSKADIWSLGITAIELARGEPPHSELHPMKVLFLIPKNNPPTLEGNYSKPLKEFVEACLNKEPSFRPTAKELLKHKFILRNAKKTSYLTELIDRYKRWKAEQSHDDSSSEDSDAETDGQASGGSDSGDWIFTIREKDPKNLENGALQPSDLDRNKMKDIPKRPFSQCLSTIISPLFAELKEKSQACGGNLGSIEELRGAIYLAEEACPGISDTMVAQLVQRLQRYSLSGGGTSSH

[13] = target: Proto-oncogene tyrosine-protein kinase receptor Ret (Homo sapiens) (UniProt P07949); experiment: Inhibition of Ret(h) at 10.0 µM in the Eurofins Kinase panel; conditions: Compound concentration 10.0 uM
[14] = target: Kappa-type opioid receptor (Homo sapiens, UniProt P41145); conditions: Compound concentration 10.0 uM
Sequence of Kappa-type opioid receptor (P41145 whole entry, canonical isoform): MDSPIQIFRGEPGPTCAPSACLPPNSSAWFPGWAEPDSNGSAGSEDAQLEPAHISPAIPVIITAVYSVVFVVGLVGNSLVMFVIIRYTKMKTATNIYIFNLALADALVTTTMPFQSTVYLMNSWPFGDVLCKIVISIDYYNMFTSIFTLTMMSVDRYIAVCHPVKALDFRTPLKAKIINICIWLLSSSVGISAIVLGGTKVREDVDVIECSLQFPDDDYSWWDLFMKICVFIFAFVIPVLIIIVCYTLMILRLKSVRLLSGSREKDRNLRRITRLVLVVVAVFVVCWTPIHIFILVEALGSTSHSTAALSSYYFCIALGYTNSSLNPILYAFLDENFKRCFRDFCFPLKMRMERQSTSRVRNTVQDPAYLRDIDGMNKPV

[15] = target: Casein kinase I isoform alpha (Homo sapiens) (UniProt P48729); experiment: Inhibition of CK1alpha(h) at 10.0 µM in the Eurofins Kinase panel; conditions: Compound concentration 10.0 uM
[16] = target: Platelet-derived growth factor receptor beta (Homo sapiens) (UniProt P09619); experiment: Inhibition of PDGFRbeta(h) at 10.0 µM in the Eurofins Kinase panel; conditions: Compound concentration 10.0 uM
[17] = target: [Pyruvate dehydrogenase (acetyl-transferring)] kinase isozyme 4, mitochondrial (Homo sapiens) (UniProt Q16654); experiment: Inhibition of PDHK4(h) at 10.0 µM in the Eurofins Kinase panel; conditions: Compound concentration 10.0 uM
[18] = target: Ephrin type-B receptor 2 (Homo sapiens) (UniProt P29323); experiment: Inhibition of EphB2(h) at 10.0 µM in the Eurofins Kinase panel; conditions: Compound concentration 10.0 uM
[19] = target: Tyrosine-protein kinase CSK (Homo sapiens) (UniProt P41240); experiment: Inhibition of CSK(h) at 10.0 µM in the Eurofins Kinase panel; conditions: Compound concentration 10.0 uM
[20] = target: T2, Alpha-1D adrenergic receptor (Homo sapiens) (UniProt P25100); conditions: Compound concentration 10.0 uM
T2 sequence (whole entry): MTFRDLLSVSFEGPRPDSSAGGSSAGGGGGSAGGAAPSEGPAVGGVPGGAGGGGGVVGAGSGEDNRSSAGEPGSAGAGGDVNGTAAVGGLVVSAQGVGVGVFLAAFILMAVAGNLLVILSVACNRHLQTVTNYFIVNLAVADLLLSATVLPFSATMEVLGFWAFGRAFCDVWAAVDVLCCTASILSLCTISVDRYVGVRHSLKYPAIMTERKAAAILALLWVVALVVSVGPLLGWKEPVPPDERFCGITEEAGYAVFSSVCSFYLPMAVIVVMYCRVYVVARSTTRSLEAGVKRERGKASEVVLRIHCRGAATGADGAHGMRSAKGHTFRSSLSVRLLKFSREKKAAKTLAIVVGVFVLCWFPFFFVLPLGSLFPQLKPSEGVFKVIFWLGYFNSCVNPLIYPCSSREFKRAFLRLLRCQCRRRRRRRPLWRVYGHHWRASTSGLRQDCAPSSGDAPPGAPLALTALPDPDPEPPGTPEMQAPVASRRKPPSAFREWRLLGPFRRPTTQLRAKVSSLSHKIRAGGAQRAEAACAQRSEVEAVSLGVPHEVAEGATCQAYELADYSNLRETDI

[21] = target: BMP-2-inducible protein kinase (Homo sapiens) (UniProt Q9NSY1); experiment: Inhibition of BIKe(h) at 10.0 µM in the Eurofins Kinase panel; conditions: Compound concentration 10.0 uM
[22] = target: 5-hydroxytryptamine receptor 6 (Homo sapiens) (UniProt P50406); conditions: Compound concentration 10.0 uM
Sequence of 5-hydroxytryptamine receptor 6 (Homo sapiens) (P50406 whole entry): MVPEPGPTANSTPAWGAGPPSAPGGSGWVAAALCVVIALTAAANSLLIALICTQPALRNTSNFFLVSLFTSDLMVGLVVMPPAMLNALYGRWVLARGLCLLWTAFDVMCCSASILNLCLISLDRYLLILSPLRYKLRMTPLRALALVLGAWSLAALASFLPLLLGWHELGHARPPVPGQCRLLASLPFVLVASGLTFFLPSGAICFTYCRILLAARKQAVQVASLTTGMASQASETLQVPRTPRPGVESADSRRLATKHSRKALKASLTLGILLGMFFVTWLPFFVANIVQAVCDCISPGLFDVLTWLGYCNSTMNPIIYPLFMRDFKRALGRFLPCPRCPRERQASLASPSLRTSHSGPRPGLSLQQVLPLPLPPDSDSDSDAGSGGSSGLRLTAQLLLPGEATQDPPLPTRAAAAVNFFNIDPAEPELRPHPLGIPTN

[23] = target: Ephrin type-A receptor 8 (Homo sapiens) (UniProt P29322); experiment: Inhibition of EphA8(h) at 10.0 µM in the Eurofins Kinase panel; conditions: Compound concentration 10.0 uM
[24] = target: D(3) dopamine receptor (Homo sapiens) (UniProt P35462); conditions: Compound concentration 10.0 uM
Sequence of D(3) dopamine receptor (Homo sapiens) (P35462 whole entry): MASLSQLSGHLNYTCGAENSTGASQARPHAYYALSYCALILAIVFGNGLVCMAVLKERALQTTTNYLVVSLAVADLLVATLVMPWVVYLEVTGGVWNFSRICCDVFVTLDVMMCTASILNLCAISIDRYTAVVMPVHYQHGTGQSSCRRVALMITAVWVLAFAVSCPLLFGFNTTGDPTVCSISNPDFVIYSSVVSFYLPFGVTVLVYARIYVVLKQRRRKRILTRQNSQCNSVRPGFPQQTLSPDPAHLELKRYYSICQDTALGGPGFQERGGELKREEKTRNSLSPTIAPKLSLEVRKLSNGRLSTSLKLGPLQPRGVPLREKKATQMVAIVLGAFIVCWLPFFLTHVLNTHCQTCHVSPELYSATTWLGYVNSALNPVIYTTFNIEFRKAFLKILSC

[25] = target: Dual specificity protein kinase CLK2 (Homo sapiens) (UniProt P49760); experiment: Inhibition of CLK2(h) at 10.0 µM in the Eurofins Kinase panel; conditions: Compound concentration 10.0 uM
[26] = target: PI3K p110 beta/p85 alpha (Homo sapiens) (UniProt P27986+P42338); experiment: Inhibition of PI3 Kinase (p110b/p85a)(h) at 10.0 µM in the Eurofins Kinase panel; assay type: protein-complex assay; conditions: Compound concentration 10.0 uM
Sequence of PI3K p110 beta/p85 alpha (Homo sapiens) (P27986 2-724 limits assumed): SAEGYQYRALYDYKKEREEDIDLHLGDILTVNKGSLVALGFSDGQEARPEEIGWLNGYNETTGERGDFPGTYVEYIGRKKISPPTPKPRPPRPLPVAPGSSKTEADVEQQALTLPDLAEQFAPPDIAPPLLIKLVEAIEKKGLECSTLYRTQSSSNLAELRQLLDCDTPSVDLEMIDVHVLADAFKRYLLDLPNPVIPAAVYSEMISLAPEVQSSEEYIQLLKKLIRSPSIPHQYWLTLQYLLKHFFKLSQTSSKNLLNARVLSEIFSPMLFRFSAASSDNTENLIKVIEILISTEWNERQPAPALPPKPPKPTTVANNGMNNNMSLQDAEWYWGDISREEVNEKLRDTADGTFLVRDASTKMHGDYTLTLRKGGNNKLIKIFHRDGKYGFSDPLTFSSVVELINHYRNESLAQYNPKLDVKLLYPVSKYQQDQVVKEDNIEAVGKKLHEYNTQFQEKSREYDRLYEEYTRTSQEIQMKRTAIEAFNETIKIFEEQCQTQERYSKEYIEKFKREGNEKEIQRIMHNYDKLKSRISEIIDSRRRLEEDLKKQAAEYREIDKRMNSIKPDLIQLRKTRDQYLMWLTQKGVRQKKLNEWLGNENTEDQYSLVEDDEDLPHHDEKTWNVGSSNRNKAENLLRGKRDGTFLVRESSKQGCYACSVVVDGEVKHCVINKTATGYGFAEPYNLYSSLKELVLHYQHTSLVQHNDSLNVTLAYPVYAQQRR
Sequence of PI3K p110 beta/p85 alpha (Homo sapiens) (P42338 whole entry partner): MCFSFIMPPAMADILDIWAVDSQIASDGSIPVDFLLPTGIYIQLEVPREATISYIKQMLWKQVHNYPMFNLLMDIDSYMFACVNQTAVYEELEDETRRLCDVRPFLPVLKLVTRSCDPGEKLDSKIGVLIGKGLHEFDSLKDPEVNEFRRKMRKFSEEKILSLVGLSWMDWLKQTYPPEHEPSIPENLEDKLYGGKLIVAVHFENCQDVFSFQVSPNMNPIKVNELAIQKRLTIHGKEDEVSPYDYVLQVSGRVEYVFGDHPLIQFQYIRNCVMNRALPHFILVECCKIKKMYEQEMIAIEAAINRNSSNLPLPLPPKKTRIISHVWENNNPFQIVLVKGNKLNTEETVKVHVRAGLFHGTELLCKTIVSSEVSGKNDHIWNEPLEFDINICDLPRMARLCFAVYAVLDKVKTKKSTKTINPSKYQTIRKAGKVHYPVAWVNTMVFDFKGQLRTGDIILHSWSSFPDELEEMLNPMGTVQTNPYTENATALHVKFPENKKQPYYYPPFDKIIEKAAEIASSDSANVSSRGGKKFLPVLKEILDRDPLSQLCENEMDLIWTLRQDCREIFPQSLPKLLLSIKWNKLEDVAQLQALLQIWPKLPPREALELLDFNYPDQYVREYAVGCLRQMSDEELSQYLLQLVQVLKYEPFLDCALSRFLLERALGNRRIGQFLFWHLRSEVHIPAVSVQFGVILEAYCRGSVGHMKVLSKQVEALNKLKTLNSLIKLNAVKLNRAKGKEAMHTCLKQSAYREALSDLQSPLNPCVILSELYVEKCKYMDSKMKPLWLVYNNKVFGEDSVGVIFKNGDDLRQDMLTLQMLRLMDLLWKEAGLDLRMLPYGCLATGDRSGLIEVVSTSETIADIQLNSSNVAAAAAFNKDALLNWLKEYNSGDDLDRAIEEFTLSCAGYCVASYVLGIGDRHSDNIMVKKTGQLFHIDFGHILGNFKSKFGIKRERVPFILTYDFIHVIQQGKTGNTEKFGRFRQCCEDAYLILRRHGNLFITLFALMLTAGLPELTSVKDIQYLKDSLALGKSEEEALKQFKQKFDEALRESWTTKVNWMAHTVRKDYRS

[27] = target: Tyrosine-protein kinase JAK1 (Homo sapiens) (UniProt P23458); experiment: Inhibition of JAK1(h) at 10.0 µM in the Eurofins Kinase panel; conditions: Compound concentration 10.0 uM

SMILES | inhibition [1] [%] | inhibition [2] [%] | inhibition [3] [%] | inhibition [4] [%] | inhibition [5] [%] | inhibition [6] [%] | inhibition [7] [%] | inhibition [8] [%] | inhibition [9] [%] | inhibition [10] [%] | inhibition [11] [%] | inhibition [12] [%] | inhibition [13] [%] | inhibition [14] [%] | inhibition [15] [%] | inhibition [16] [%] | inhibition [17] [%] | inhibition [18] [%] | inhibition [19] [%] | inhibition [20] [%] | further results
O=c1n(Cc2cncn2-c2cccc(Cl)c2)nc(-c2ccc(Cl)cc2)n1C[C@H](O)C(F)(F)F | -8.9 | -3 | 7.23 | 9.53 | -0.4 | 9.81 | -7.8 | -3.8 | 2.02 | 3 | 7.51 | 5.64 | -9.37 | 3.83 | -1.11 | -9.1 | 5.68 | -4.8 | -8.53 | -1.97 | inhibition [21]: -1.55%; inhibition [22]: 1.09%; inhibition [23]: 3.67%; inhibition [24]: 18.3%; inhibition [25]: -2.19%; inhibition [26]: -2.42%; inhibition [27]: 8.74%
C[C@H](O)c1nc(Cn2nc(-c3ccc(Cl)cc3)n(C[C@H](O)C(F)(F)F)c2=O)nn1-c1cccc(Cl)c1 [PECAVAPTAN] | -0.76 | 11 | -5.64 | 7.54 | -0.58 | 11.4 | -3.72 | -3.83 | -0.68 | 2 | 5.58 | 3.02 | -9.36 | 62.4 | -1.65 | -5.19 | 9.02 | 6.86 | -8.59 | -0.23 | inhibition [21]: -0.71%; inhibition [22]: 17.4%; inhibition [23]: 4.55%; inhibition [24]: 19.7%; inhibition [25]: -2.64%; inhibition [26]: -1.96%; inhibition [27]: -1.72%
